One test concerns Panonychus citri. Put plainly: Test Example 2: Satsuma mandarin orange leaf piece immersion test, insecticidal rate on female imagoes. The class given is in vivo. The following applies: mandarin orange leaf piece immersed 60 seconds, after 6 days, 3 replicates. The protocol: A suspension concentrate containing 10.0% by weight of etoxazole [product name: Baroque (registered trademark) flowable, manufactured by Kyoyu Agri Co., Ltd.] was diluted with water containing 0.02% by volume of a spreading agent [product name: Sindain (registered trademark), manufactured by Sumitomo Chemical Co., Ltd.] so that the concentration of etoxazole became 1.56 ppm.
A suspension concentrate containing 11.7% by weight of spinetoram (weight ratio of spinetoram J:spinetoram L=75:25) was diluted with water containing 0.02% by volume of a spreading agent [product name: Sindain (registered trademark), manufactured by Sumitomo Chemical Co., Ltd.] so that the concentration of spinetoram became 6.25 ppm.
(§1) The water dilution of spinetoram was mixed with an equal amount of the water dilution of etoxazole to prepare a test solution.
The water dilution of etoxazole and the water dilution of spinetoram were respectively diluted with an equal amount of water containing 0.02% by volume of the same spreading agent as mentioned above to prepare a 0.78 ppm water dilution of etoxazole and a 3.13 ppm water dilution of spinetoram.
Leaves were taken from a cultivated Satsuma mandarin orange tree, and cut into 2-cm-square pieces. One of the pieces was immersed in the test solution for 60 seconds. […]
An insecticidal rate was calculated in the same manner as Test Example 1. […]

The next test has as its system Spodoptera litura. Put plainly: Test Example 1: cabbage leaf immersion test, insecticidal rate on third-instar larvae. Type of test: in vivo. The following applies: cabbage leaf immersed 60 seconds, after 4 days, 3 replicates. The protocol:
A suspension concentrate containing 10.0% by weight of etoxazole [product name: Baroque (registered trademark) flowable, manufactured by Kyoyu Agri Co., Ltd.] was diluted with water containing 0.02% by volume of a spreading agent [product name: Sindain (registered trademark), manufactured by Sumitomo Chemical Co., Ltd.] so that the concentration of etoxazole became 25 ppm.
A suspension concentrate containing 11.7% by weight of spinetoram (weight ratio of spinetoram J:spinetoram L=75:25) was diluted with water containing 0.02% by volume of a spreading agent [product name: Sindain (registered trademark), manufactured by Sumitomo Chemical Co., Ltd.] so that the concentration of spinetoram became 7.31 ppm.
as §1
The water dilution of etoxazole and the water dilution of spinetoram were respectively diluted with an equal amount of water containing 0.02% by volume of the same spreading agent as mentioned above to prepare a 12.5 ppm water dilution of etoxazole and a 3.66 ppm water dilution of spinetoram.
A cabbage was planted in a pot (volume: 860 ml) and grown until the fourth leaf stage. The leaves of the cabbage were cut off one by one. […]
An insect death rate was calculated according to the following equation. […]

spinetoram: the Insecticidal rate is given as 23.1% in the test with Panonychus citri (3.13 ppm active ingredient) and 43.3% with Spodoptera litura (3.66 ppm active ingredient).
With `CCOc1cc(C(C)(C)C)ccc1C1COC(c2c(F)cccc2F)=N1` (stereo not shown) [Etoxazole, 2-(2,6-difluorophenyl)-4-[4-(1,1-dimethylethyl)-2-ethoxyphenyl]-4,5-dihydrooxazole], the values for the Insecticidal rate with Panonychus citri (0.78 ppm active ingredient) and with Spodoptera litura (12.5 ppm active ingredient) were 7.7% and 26.7%, respectively.

(Values after patent US8796231B2, “Pest control composition” (Sumitomo Chemical Company, Limited, priority 2010, dated 2014).)
